US11883398B2, “Dipeptidylpeptidase 4 inhibition enhances lymphocyte trafficking, improving both naturally occurring tumor immunity and immunotherapy” (INSTITUT PASTEUR, priority 2015, dated 2024)

Legend:
B16F10 tumors = test: Flow cytometry of leukocytes infiltrating B16F10 tumors; assay type: in vivo, mouse
Procedure: B16F10 and M04 (Ovalbumin-expressing B16F10 cells, gift from C. Reis e Sousa) tumor cells were cultured in DMEM (Gibco) supplemented with 10% FCS (PAA), 0.1 mM non-essential amino acids, 1 mM sodium pyruvate, 10 mM Hepes, 70 μM beta-mercaptoethanol and 23 μg/ml gentamycin (all from Gibco). CT26 colon carcinoma cells were cultured in RPMI (Gibco) supplemented as described for DMEM. Cells for injections were passaged 1-2 times after thawing, before use. WT and genetically modified mice were subcutaneously injected with 2×10^5 B16 or 5×10^5 CT26 cells in the shaved right flank. When indicated, mice received an intra-tumoral injection of 1 μg of recombinant mCXCL10, 5 μg CpG-A in DOPTAP or vehicle control. For blocking of chemokine and chemokine receptors, WT mice were intraperitoneally injected with 100 μg of hamster a-mCXCR3 (clone CXCR3-173, BioLegend), 100 μg of hamster α-mCCR5 (clone HM-CCR5, BioLegend), 50 μg of rat anti-mCXCL10 (clone 134013, R&D systems) and 20 μg of rat-α-mCXCR4 (clone 2B11/CXCR4, BD Biosciences) or with respective isotype antibodies (hamster IgG (clone HTK888, BioLegend, used as control for mCXCR3 and mCCR5 blockage); rat IgG2a (clone 54447, R&D systems, used as control for mCXCL10 blockade) and rat IgG2b (clone A95-1, BD Biosciences, used as control for mCXCR4 blockade). Intraperitoneal injection was done one day before and 4, 8 and 12 days after tumor cell injection. For CXCL10 neutralization, antibodies were injected on day 2, 5, 8 and 11 after tumor cell injection. For immunotherapy protocols, mice were intraperitoneally injected with 100 μg of mouse α-CTLA-4 (clone 9D9, Bioxcell), 200 μg of PD1 (clone RMP1-14, Bioxcell), a combination of 100 μg of α-CTLA-4+200 μg of a-PD1 or control isotypes (100 μg […] and 200 μg rat IgG2a (clone 2A3), both from Bioxcell) on day 3, 6 and 9 after tumor cell implantation. For adoptive cell transfer experiments, Pmel-1 Thy-1.1^+Thy-1.1^+, Cxcr3^−/− Thy-1.1^+Thy-1.2^+ Pmel-1 or OT1 splenocytes were activated ex-vivo, by incubation with 1 nM of human gp100 (for Pmel-1 cells) or […] (for OT1 cells) peptides for 1h at room temperature with agitation. Splenocytes were then washed and resuspended in R10 supplemented with 30U/mL of recombinant human IL-2. CD8^+ T cells were expanded for 6-7 days before used. For analysis of tumor infiltrates, activated Cxcr3^+/+ Thy-1.1^+Thy-1.1^+ and Cxcr3^−/− Thy-1.1^+Thy-1.2^+ transgenic Pmel-1 CD8^+ T cells were mixed in a 1:1 ratio (total 1×10^6 cells) and injected intravenously into gender matched tumor-bearing mice (3 days after tumor cell injection). For analysis of tumor growth, activated OT1 cells were injected intravenously (1×10^5 cells per mouse) into gender matched tumor-bearing mice, 3 days after tumor cell injection. Tumor height and width were measured with a caliper and tumor volume was calculated (Elliptical volume=width^2×height×0.523). The model of metastatic melanoma was achieved by intravenous injection of 2×10^5 B16 tumor cells. 15 days after tumor cell injection, lungs were dissected, placed in Fekete's solution and metastatic foci were counted. Lungs with more than 100 metastatic nodules were defined as 100.
Fluorochrome-conjugated anti-mouse CD3 (clone145-2C11), CD8 (clone 53-6.7), CD4 (clone RM4-5), NK1.1 (clone PK136), CD49b (clone DX5), CD25 (clone PC61), B220 (clone RA3-6B2), Ly6G (clone 1A8), Ly6C (clone AL-21), CD11 b (clone M1/70) Siglec-F (clone E50-2440), MHCII IA-IE (clone M5/114.15.2), CD45.2 (clones 56-0454-82 and 109830), Thy-1.1 (clone HIS51), Thy-1.2 (clone 53-2.1), DPP4 (clone H194-112) and CXCR3 (clone CXCR3-173) were from eBiosciences and BD Biosciences. Fluorochrome conjugated anti-F4/80 (clone CI:A3-1) was from AbDserotec. For exclusion of dead cells, Live/Dead fixable Aqua reagent (Invitrogen) was used. For all staining protocols, cell suspensions were incubated with mouse CD16/CD32 Fc Blocking antibodies (BD Biosciences) prior to antibody. […]

DPP9 = DPP9 (Homo sapiens, UniProt Q86TI2); conditions: Verspohl 2012; Huan et al. 2015; cited from earlier work
Sequence of DPP9 (Q86TI2 whole entry, species assumed): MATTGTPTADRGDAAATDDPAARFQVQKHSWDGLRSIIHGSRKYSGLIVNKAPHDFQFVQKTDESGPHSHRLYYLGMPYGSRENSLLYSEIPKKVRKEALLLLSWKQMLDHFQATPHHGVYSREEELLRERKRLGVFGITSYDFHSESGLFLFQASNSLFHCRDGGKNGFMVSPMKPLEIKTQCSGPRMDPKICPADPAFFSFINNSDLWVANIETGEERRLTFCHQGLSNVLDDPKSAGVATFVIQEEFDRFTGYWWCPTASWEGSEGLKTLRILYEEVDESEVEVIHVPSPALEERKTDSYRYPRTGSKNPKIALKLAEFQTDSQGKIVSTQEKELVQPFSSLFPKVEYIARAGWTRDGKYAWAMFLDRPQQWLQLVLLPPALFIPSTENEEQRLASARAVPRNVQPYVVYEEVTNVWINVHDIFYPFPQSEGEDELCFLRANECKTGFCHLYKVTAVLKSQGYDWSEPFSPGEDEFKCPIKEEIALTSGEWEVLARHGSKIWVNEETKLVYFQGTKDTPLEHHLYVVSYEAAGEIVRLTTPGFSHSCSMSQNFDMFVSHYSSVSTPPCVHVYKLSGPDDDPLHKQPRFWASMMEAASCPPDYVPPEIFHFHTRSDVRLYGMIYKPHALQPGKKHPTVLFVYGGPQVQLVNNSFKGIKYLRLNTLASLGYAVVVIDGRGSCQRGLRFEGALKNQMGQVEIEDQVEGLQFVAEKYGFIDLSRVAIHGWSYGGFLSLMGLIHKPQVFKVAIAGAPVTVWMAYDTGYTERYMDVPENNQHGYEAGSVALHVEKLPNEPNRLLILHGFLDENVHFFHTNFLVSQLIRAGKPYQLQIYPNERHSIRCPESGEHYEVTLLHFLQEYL

mCXCL10 = conditions: sitagliptin vs control
Procedure: Plates were washed twice with 300 μL of PBS. Blocking was done with BSA 1% (proteinase free, Gibco), in PBS for 2h at room temperature. Plates were washed 3 times with 300 μL of 0.05% Tween-20 in PBS. Tumor and plasma samples were diluted in BSA 1% and incubated for 2h, at room temperature. To obtain a standard curve, and to control for the cross-reactivity of the detection antibody, dilutions of recombinant mCXCL10 (Peprotech) or DPP4-digested mCXCL10(3-77) were incubated in parallel. For detection of mCXCL10(1-77), biotinylated α-mCXCL10(1-77) (AbDSerotec, 0.5 μg/ml, clone AbD17185.1), Streptavidin-HRP (BD Biosciences) and 1-STEP ULTRA TMB (Thermo Scientific) were used.
Enzymatic reactions were stopped with HCL 1N and plates were read with 450 nm in a Lab-systems […] MS (Thermo) reader. […] Detection of mDPP4, mCCL22 and mCXCL12 was done with the DUOSET® ELISA kit (R&D). Detection of mVEGF, mCCL2 and mCCL3 was done with a multiplex kit (Invitrogen).

CT26 tumors = test: Flow cytometry of leukocytes infiltrating CT26 tumors; assay type: in vivo, mouse; conditions: day 11, sitagliptin vs control
[1] = Thioglycollate induced peritonitis; assay type: in vivo, mouse; conditions: 24 h after intraperitoneal thioglycollate, sitagliptin vs control
Procedure: WT and Dpp4^−/− mice were intraperitoneally injected with PBS or 1 μg of mCXCL10, mCXCL9 or mCCL5 (all from Peprotech). At the indicated time points, mice were sacrificed and peritoneal cells were collected in 10 mL of PBS. For thioglycollate induced peritonitis mice were intraperitoneally injected with thioglycollate 3% weight/volume, 24 hours before collection of peritoneal cells.

[2] = B16F10 tumors, sitagliptin vs control

With `N[C@@H](CC(=O)N1CCn2c(nnc2C(F)(F)F)C1)Cc1cc(F)c(F)cc1F` [sitagliptin] the “number of CD4+ and CD8+ T cells localized to the tumors” value (B16F10 tumors; [2]) was “significant increase”, the “number of tumor-infiltrating myeloid cells, NK cells, B lymphocytes or CD25hi regulatory T cells” value (B16F10 tumors; [2]) was “no significant differences” and the “CXCL10-mediated trafficking of Pmel-1 cells into B16F10 tumors” value (B16F10 tumors; adoptive transfer, 12-14 hr after intratumoral mCXCL10) was “enhanced”. The “lymphocyte recruitment into the tumor parenchyma after intratumoral mCXCL10” value (B16F10 tumors; day 7 B16F10 tumors, 12-14 h after injection) was “enhanced CXCL10 recruitment of T cells and NK cells”, the “trafficking of B cells, regulatory T cells, eosinophils or neutrophils into tumors after intratumoral mCXCL10” value (B16F10 tumors; day 7 B16F10 tumors, sitagliptin vs control) was “unchanged” and the “effect on DPP9 activity” value (DPP9) was “no effect”. The “quantity of plasma mCCL2” value (mCXCL10; CpG-A intravenously) was “higher”, the “CpG-A-induced plasma total CXCL10” value (mCXCL10; WT mice, 5 μg CpG-A intravenously) was “stabilization of CpG-A-induced plasma CXCL10” and the “quantity of plasma mCXCL10(1-77)” value (mCXCL10; WT mice, CpG-A intravenously) was “significantly higher”. The “infiltration of lymphocytes, including T cell subsets and NK cells, into CT26 tumors” value (CT26 tumors) was “enhanced infiltration of lymphocytes”, the “number of tumor associated B cells, eosinophils and CD25hi regulatory T cells in CT26 tumors” value (CT26 tumors) was “did not change” and the “thioglycollate-induced neutrophil, monocyte and eosinophil migration” value [1] was “no differences were observed”.
